Results from patent US20250043285A1, “Mammalian ATG8 Proteins and ATG9A Direct Sealing of Autophagosomal Membranes” (UNM Rainforest Innovations, priority 2023, published 2025).
Entries after “also recorded” stand apart in the source; their conditions may differ.

What was measured:
[1] = system: HeLa cells stably expressing HT-LC3B (LC3B^+ membranes including autophagosomes); assay: HT-LC3B MIL/MPL assay by high content microscopy (autophagic membrane sealing); format: cell-based
Description: HCM: MIL/MPL assay for assessment of autophagic membrane sealing. HaloTag-LC3B stable cell lines were seeded in 96 well plate at the density of 8,000 cells/well. After 18-24 h cells were induced for autophagy (EBSS for 90 min) or mitophagy (20 μM CCCP for 6 h). After induction, cells were incubated with Membrane Impermeant Ligand (MIL: Alexa Fluor-660 663Ex/690Em, 1 μM, Promega, G8471) prepared in 1×MAS buffer (220 mM mannitol, 70 mM sucrose, 10 mM KH2PO4, 5 mM MgCl2, 2 mM HEPES, 1 mM EGTA, from Sigma) containing XF-PMP (Agilent; 102504-100, 1.5 nM for Huh7 and 4 nM for HeLa cells) at 37° C. for 15 min. Cells were washed twice with 1×PBS and fixed with 4% paraformaldehyde (PFA, Sigma) in PBS for 5 min at RT. Cells were again washed twice with 1×PBS and incubated with Membrane-Permeant Ligand (MPL: TMR 5 μM, 555Ex/585Em, Promega, G8251) for 30 min at RT. Cells were washed once with 1×PBS and stained with Hoechst 33342 (Thermo Scientific, H3570, 1:1000) for 10 min at RT. Cells were washed twice and plate was scanned by High Content Microscopy (HCM) for automated image acquisition and quantification, iDEV software (Thermo) in 96-well plates^5. To test the role of mATG8s in autophagosome closure, we used the previously described strategy^41 employing stable cell lines expressing HT-LC3B, used to assess autophagosomal closure^41, 42, 45. We adapted this assay for high content microscopy (HCM) to allow unbiased operator-independent image collection, object identification and quantification, as previously established^30, 75 (FIG. 1C). […] The plates were scanned to quantify MPL^+ (sealed) and MIL^+ (unsealed) autophagosomes and any additional LC3B^+ structures, and data (quantitative HCM) presented as the number of MIL^+ or MPL^+ profiles/cell and their ratios (MIL/MPL) (FIG. 1D). MIL^+MPL^+ profiles were also observed but represented a very small fraction (<5%) and were not differentiated in quantifications.

[2] = system: Huh7^WT and Huh7^ATG9AKO cells; assay: Western blot of Parkin and COX-II under CCCP-induced mitophagy; format: cell-based; conditions: BafA1 100 nM
Description: 13A. Schematic representation of proximity biotinylation proteomics (process stages) for LC MS/MS identification of APEX2-ATG9A partners in cells subjected to EBSS-induced autophagy and CCCP-induced mitophagy. 13B, List of ATG9A's key ESCRTs interactors and their peptide counts. 13C, HeLa^WT and HeLa^ATG9AKO cell line stably expressing YFP-Parkin were induced for mitophagy by CCCP or Olygomycin A and Antimycin A (OA). HCM was used to quantify mitophagy by determining remaining mtDNA puncta per cell. Blue squares, HeLa^WT stably expressing YFP-Parkin; red squares, HeLa^ATG9AKO stably expressing YFP-Parkin. 13D, HCM images illustrating mtDNA (red mask) in HeLa^WT and HeLa^ATG9AKO cells stably expressing YFP-Parkin. 13E, Western blot analysis of Huh7^WT and Huh7^ATG9AKO cells, under control conditions (full medium) or subjected to CCCP-induced mitophagy. […] 13G, Western blot analysis of LC3B lipidation in control and CCCP-induced mitophagy condition in Huh7^ATG9AWT or Huh7^ATG9AKO. 13H, Quantification of LC3B dots in Huh7^WT and Huh7^ATG9AKO cells under control conditions or subjected to CCCP-induced mitophagy. […] 13J,13K Quantification of p62 and NDP52 levels in control and proteinase K-treated samples. Statistical significance was determined by one-way ANOVA followed by Tukey's multiple comparison test, P<0.01. […]

SMILES: CO/C1=C\C(C)=C\[C@@H](C)[C@@H](O)[C@@H](C)C/C(C)=C/C=C/[C@H](OC)[C@@H]([C@@H](C)[C@@H](O)[C@H](C)[C@@]2(O)C[C@@H](O)[C@H](C)[C@@H](C(C)C)O2)OC1=O [BafA1, Bafilomycin A1]
- MPL^+ (sealed) profiles/cell ([1]; HeLa^HexaKO HT-LC3B cells, starved in EBSS 90 min, 100 nM BafA1): could not be enhanced by BafA1 treatment
- MPL^+ (sealed) profiles/cell ([1]; HeLa^HexaKO, HeLa^LC3TKO and HeLa^GABATKO HT-LC3B cells, EBSS, 100 nM BafA1): no detectable further MPL^+ increase
- MPL^+ (sealed) profiles/cell ([1]; HeLa^WT HT-LC3B cells, starved in EBSS 90 min, 100 nM BafA1, vs EBSS alone): further elevated; also recorded: further increased in the presence of BafA1
- Parkin and COX-II levels (immunoblot) [2]: accumulation of Parkin and COX-II
